Data from patent publication US6403788B1, “Non-genotoxic metalloporphyrins as synthetic catalytic scavengers of reactive oxygen species” (Eukarion, Inc., priority 2000, dated 2002).

Tests used:
[1] = Catalase activity, hydrogen peroxide consumed at 20 minutes; format: biochemical; settings: over 20 minutes; 10 μM compound, 100 μM hydrogen peroxide, 40 mM sodium phosphate pH 7.4
Protocol: (§1) Catalase activity was measured by incubating the sample compound with hydrogen peroxide and determining the amount of hydrogen peroxide remaining after a period of time using a colorimetric peroxidase-coupled assay method. 10 μM sample compound and 100 μM hydrogen peroxide in 40 mM sodium phosphate pH 7.4 were incubated together at ambient temperature in a multi-well plate. After the desired reaction period had elapsed, 20 μl of peroxidase/ABTS reagent was added (peroxidase/ABTS reagent contained 100 μl of 50 mM Na phosphate, pH 7.4, 1 mg horseradish peroxidase (1310 U/mg) and […]). After five minutes, absorbance at 750 nm was determined. The amount of hydrogen peroxide remaining was calculated based on a standard curve. To compare rates of catalase reaction, the amount of hydrogen peroxide consumed at 20 minutes was determined (See table III). It was also of interest to determine the total number of turnovers completed by the compound before inactivation by hydrogen peroxide. This was assayed under similar conditions, except that 15.8 μM compound was combined with 1582 μM hydrogen peroxide in 5 mM Na phosphate, pH 7.4. Reactions were allowed to proceed to completion and then the amount of hydrogen peroxide remaining was determined as described above. Results showing […] in the turnover assay (nmoles hydrogen peroxide per nmole compound) are also shown in Table III.

[2] = Catalase turnover assay, total hydrogen peroxide consumed before inactivation; format: biochemical; settings: to completion, 15.8 μM compound, 1582 μM hydrogen peroxide, 5 mM Na phosphate pH 7.4
Protocol: as §1

[3] = Peroxidase activity, ABTS oxidation; format: biochemical; settings: 10 μM compound, 200 μM hydrogen peroxide, 500 μM ABTS, pH 8.1, 740 nm
Protocol: Peroxidase activity was measured by incubating 10 μM compound, 200 μM hydrogen peroxide and 500 μM ABTS in 50 mM sodium phosphate, pH 8.1. The rate of ABTS oxidation was monitored at 740 nm and initial rates (change in absorbance per min.) determined.

[4] = Superoxide dismutase activity, xanthine-xanthine oxidase / cytochrome C; format: biochemical; settings: reciprocal of IC50; xanthine 60 μM, xanthine oxidase 0.009 units/ml, cytochrome C 27.8 μM
Protocol: Superoxide Dismutase Activity was measured by incubating the compound with a superoxide generating system (Xanthine, 60 μM-Xanthine Oxidase, 0.009 units/ml) and a detector molecule (Cytochrome C, 27.8 μM). Upon reacting with a molecule of superoxide, Cytochrome C undergoes a spectrum-shift which can be detected as an increase in absorbance at 550 nm. In this assay procedure, the reactant concentrations were adjusted to give a reaction rate close to 0.1 AU/min. at 2-3 min. after the reaction began. Addition of compounds with Superoxide Dismutase activity reduce the rate of absorbance change. Compounds were assayed at several concentrations (typically at 0, 2, 4, and 8 μM) and the resulting rates were graphed and fitted to a linear regression formula. The linear regression formula was then solved to determine the concentration of compound required to reduce the reaction rate to 50% of the rate without compound present (IC50).

[5] = test system: ΦX 174 DNA Plasmid (Form I); assay: Cleavage of ΦX 174 DNA plasmid (form I), compound alone or activated with KHSO5; format: biochemical, phage ΦX 174
Excerpt: (§2) The DNA cleavage activity was quantified in terms of number of single-strand breaks per DNA molecule according to the equation […], Io=% form I (supercoiled DNA) in the DNA control, and I=% form I in the experiment (see Bernadou et al, Biochemistry, 28: 7268-7275, (1989)). This assay is very sensitive and is able to detect very low levels of DNA activity. S values less than S=1.0 are indicative of very low DNA cleavage activity when the compounds are at a concentration of equal to or less than 1000 nM and KHSO5 is present at a concentration of equal to or less than 100 μM.
(§3) ΦX 174 DNA digestion conditions for standard experiments were as follows: commercially available DNA was diluted to 50 μg/mL in phosphate buffer (10 mM, pH 7.5). The reaction involved 5 μL of ΦX 174 DNA (50 μg/mL, 74.8 μM in base pairs), 5 μL of 40 mM phosphate buffer, pH 7.5 with 400 mM NaCl, 5 μL of metalloporphyrin in double-distilled water or 5 μL of iron-bleomycin complex in double-distilled water, and 5 μL of KHSO5 or 5 μL of H2O2 or 5 μL of ascorbate in double-distilled water. Preincubation of DNA and metalloporphyrins or iron-bleomycin complex was performed for about 15 min. The digestion time in the presence of KHSO5 was 10 min, of H2O2 was 30 min and of ascorbate was 30 min at 20° C. DNA cleavage was monitored by agarose gel electrophoresis. Reactions with KHSO5 were first quenched by 2 μL of 100 mM Hepes buffer, pH 8. In all cases, reactions were quenched by 5 μL of a stopping reagent. The stopping reagent consisted of 250 mM Hepes buffer, pH 7.4, containing 75% glycerol and 0.05% bromophenol blue. Reaction mixtures were then run in 0.8% agarose slab horizontal gel containing ethidium bromide […], at constant current (25 mA for 15h), in 89 mM Tris-borate buffer and 2.5 mM EDTA pH 8.3. Bands were located by WV light (254 nm), photographed, and quantitated by microdensitometry. The correction coefficient 1.47±0.30 was used for decreased stainability of form I DNA vs form II DNA and form III DNA.

[6] = test system: ΦX 174 DNA Plasmid (Form I); assay: Cleavage of ΦX 174 DNA plasmid (form I), activation with ascorbate in the presence of air; format: biochemical, phage ΦX 174; settings: for S (single-strand breaks per DNA molecule) / form % I / form % II / form % III: DNA 3.5 nM
Excerpt: as §2, §3

[7] = test system: ΦX 174 DNA Plasmid (Form I); assay: Cleavage of ΦX 174 DNA plasmid (form I), activation with H2O2; format: biochemical, phage ΦX 174; settings: DNA 3.5 nM, compound 1 μM, H2O2 1 mM
Excerpt: as §2, §3

[8] = DNA 3.5 nM, compound 1 μM, KHSO5 100 μM
[9] = compound 10 nM, without ascorbate (Table II)

O=C(O)c1ccc(-c2c3nc(c(-c4ccc(C(=O)O)cc4)c4ccc([n-]4)c(-c4ccc(C(=O)O)cc4)c4nc(c(-c5ccc(C(=O)O)cc5)c5ccc2[n-]5)C=C4)C=C3)cc1.[Mn+3] [MnTBAP, Mn(III) tetrakis (4-benzoic acid) porphyrin, reference compound]
CATALASE* Rate at 20 mins. [1]: 0.4 nmole H2O2/nmole Structural Formula compound
CATALASE** H2O2 Consumption [2]: 38.5 nmole H2O2/nmole Structural Formula compound
PEROXIDASE Initial Rate [3]: 0.0304 change in absorbance per min.
Cyt C SOD 1/(IC50, μM) [4]: 0.015 µM⁻¹

CC[NH+](CC)CCNS(=O)(=O)c1ccc(C2=C3C=CC4=[N+]3[Mn-]35[n]6c2ccc6C(c2ccc(S(=O)(=O)NCC[NH+](CC)CC)cc2)=C2C=CC(=[N+]23)C(c2ccc(S(=O)(=O)NCC[NH+](CC)CC)cc2)=c2ccc([n]25)=C4c2ccc(S(=O)(=O)NCC[NH+](CC)CC)cc2)cc1.[Cl-].[Cl-].[Cl-].[Cl-].[Cl-] [Structural Formula II, meso-tetrakis[4-(N-(2-(N,N-diethylammonio)ethyl)aminosulfonyl)phenyl]porphyrinato diaqua-manganese (III) pentachloride]
CATALASE* Rate at 20 mins. [1]: 1.6 nmole H2O2/nmole Structural Formula compound
CATALASE** H2O2 Consumption [2]: 42.4 nmole H2O2/nmole Structural Formula compound
PEROXIDASE Initial Rate [3]: 0.0151 change in absorbance per min.
Cyt C SOD 1/(IC50, μM) [4]: 0.034 µM⁻¹

CC[NH+](CC)CCNS(=O)(=O)c1ccc(-c2c3nc(c(-c4ccc(S(=O)(=O)NCC[NH+](CC)CC)cc4)c4ccc([n-]4)c(-c4ccc(S(=O)(=O)NCC[NH+](CC)CC)cc4)c4nc(c(-c5ccc(S(=O)(=O)NCC[NH+](CC)CC)cc5)c5ccc2[n-]5)C=C4)C=C3)cc1.O.O.[Cl-].[Cl-].[Cl-].[Cl-].[Cl-].[Fe+3] [Structural Formula III, meso-tetrakis[4-(N-(2-(N,N-diethylammonio)ethyl)aminosulfonyl)phenyl]porphyrinato diaqua-iron (III) pentachloride]
CATALASE* Rate at 20 mins. [1]: 0.3 nmole H2O2/nmole Structural Formula compound
CATALASE** H2O2 Consumption [2]: 4.7 nmole H2O2/nmole Structural Formula compound
PEROXIDASE Initial Rate [3]: 0.0363 change in absorbance per min.
Cyt C SOD 1/(IC50, μM) [4]: 0.045 µM⁻¹

CC(=O)[O-].CC(=O)[O-].CC(=O)[O-].CC(=O)[O-].CC(=O)[O-].CC[N+](C)(CC)CCNS(=O)(=O)c1ccc(-c2c3nc(c(-c4ccc(S(=O)(=O)NCC[N+](C)(CC)CC)cc4)c4ccc([n-]4)c(-c4ccc(S(=O)(=O)NCC[N+](C)(CC)CC)cc4)c4nc(c(-c5ccc(S(=O)(=O)NCC[N+](C)(CC)CC)cc5)c5ccc2[n-]5)C=C4)C=C3)cc1.O.O.[Mn+3] [Structural Formula VI, meso-tetrakis[4-(N-(2-(N,N,N-diethylmethylammonio)ethyl)aminosulfonyl)phenyl]porphyrinato diaqua-manganese (III) pentaacetate]
CATALASE* Rate at 20 mins. [1]: 2.4 nmole H2O2/nmole Structural Formula compound
CATALASE** H2O2 Consumption [2]: 42 nmole H2O2/nmole Structural Formula compound
PEROXIDASE Initial Rate [3]: 0.0011 change in absorbance per min.
Cyt C SOD 1/(IC50, μM) [4]: 0.041 µM⁻¹

CC(=O)[O-].CC(=O)[O-].CC(=O)[O-].CC(=O)[O-].CC(=O)[O-].CC[N+](C)(CC)CCNS(=O)(=O)c1c(C)cc(C)c(-c2c3nc(c(-c4c(C)cc(C)c(S(=O)(=O)NCC[N+](C)(CC)CC)c4C)c4ccc([n-]4)c(-c4c(C)cc(C)c(S(=O)(=O)NCC[N+](C)(CC)CC)c4C)c4nc(c(-c5c(C)cc(C)c(S(=O)(=O)NCC[N+](C)(CC)CC)c5C)c5ccc2[n-]5)C=C4)C=C3)c1C.O.O.[Mn+3] [Structural Formula VII, meso-tetrakis[3-(N-(2-(N,N,N-diethylmethylammonio)ethyl)aminosulfonyl)-2,4,6-trimethylphenyl]porphyrinato diaqua-manganese (III) pentaacetate]
CATALASE* Rate at 20 mins. [1]: 1.3 nmole H2O2/nmole Structural Formula compound
CATALASE** H2O2 Consumption [2]: 166.6 nmole H2O2/nmole Structural Formula compound
PEROXIDASE Initial Rate [3]: 0.0025 change in absorbance per min.
Cyt C SOD 1/(IC50, μM) [4]: 0.013 µM⁻¹

CC(=O)[O-].CC(=O)[O-].CC(=O)[O-].CC(=O)[O-].CC(=O)[O-].CC[N+](C)(CC)CCNS(=O)(=O)c1c(C)cc(C)c(C2=C3C=CC4=[N+]3[Fe-]35[n]6c2ccc6C(c2c(C)cc(C)c(S(=O)(=O)NCC[N+](C)(CC)CC)c2C)=C2C=CC(=[N+]23)C(c2c(C)cc(C)c(S(=O)(=O)NCC[N+](C)(CC)CC)c2C)=c2ccc([n]25)=C4c2c(C)cc(C)c(S(=O)(=O)NCC[N+](C)(CC)CC)c2C)c1C [Structural Formula VIII, meso-tetrakis[3-(N-(2-(N,N,N-diethylmethylammonio)ethyl)aminosulfonyl)-2,4,6-trimethylphenyl]porphyrinato diaqua-iron(III) pentaacetate]
S (single-strand breaks per DNA molecule) [5, 8]: 0.03 SSBs
form % I [5, 8]: 90%
form % II [5, 8]: 10%
form % III [5, 8]: 0%
DNA cleavage activity in oxidative medium ([5]; oxidative medium (KHSO5)): do not exhibit any significant DNA cleavage activity
S (single-strand breaks per DNA molecule) ([6]; compound 1 μM, Asc. 1 mM): 1.61 SSBs
form % I ([6]; compound 1 μM, Asc. 1 mM): 43%
form % II ([6]; compound 1 μM, Asc. 1 mM): 57%
form % III ([6]; compound 1 μM, Asc. 1 mM): 0%
S (single-strand breaks per DNA molecule) [7]: 0.13 SSBs
form % I [7]: 86%
form % II [7]: 14%
form % III [7]: 0%

Bleomycin [reference compound]
DNA cleavage ([6]; 1 μM concentration, ascorbate): all DNA is cleaved in small fragments
S (single-strand breaks per DNA molecule) ([6]; compound 10 nM, Asc. 1 mM): 7.79 SSBs
form % I ([6]; compound 10 nM, Asc. 1 mM): 7%
form % II ([6]; compound 10 nM, Asc. 1 mM): 71%
form % III ([6]; compound 10 nM, Asc. 1 mM): 22%
S (single-strand breaks per DNA molecule) [6, 9]: 0.01 SSBs
form % I [6, 9]: 94%
form % II [6, 9]: 6%
form % III [6, 9]: 0%
times more active in DNA cleavage than Structural Formula V ([6]; same concentration (10 nM), ascorbate 1 mM, from experiments 2, 3, 7 and 8): 768 times
